Legend:
[1] = test system: powdery mildew fungus (Blumeria graminis); assay: Test Example 1: controlling effect by seed dressing against wheat powdery mildew; format: in vivo; conditions: 0.15% active ingredient based on weight of dry seeds, inoculated 25 days after sowing, investigated 7 days after inoculation
Text: (§1) Seeds of wheat (cultivar: chihoku komugi) and a wettable powder prepared according to Formulation Example were placed in a vinyl bag, followed by adding thereto a small volume of water, and they were mixed to conduct seed dressing. On the day after this treatment, the seeds sowed in a plastic pot of 10 cm diameter, and cultivated in a greenhouse. Twenty five days after sowing, the seedlings thus obtained were inoculated with powdery mildew fungus (Blumeria graminis) by sprinkling. Seven days after inoculation, the seedlings were investigated and infection index was estimated according to the criterion shown below, after which the control efficacy (%) was calculated. In this occasion, infection index on the untreated plot was 8.0. As comparative examples, the following compounds described in JP-A-2001-10909 were evaluated. • I: 3′-chloro-4,4′-dimethyl-1,2,3-thiadiazole-5-carboxanilide • II: benzyl 4-isopropyl-1,2,3-thiadiazole-5-carboxylate • III: methyl 4-cyclopropyl-1,2,3-thiadiazole-5-carboxylate • IV: 4-cyclopropyl-1,2,3-thiadiazole-5-carboxylic acid Infection Index • 0: No infection. • 0.5: Lesion area percentage: less than 10% • 1: Lesion area percentage; 10 to less than 20% • 2: Lesion area percentage; 20 to less than 30% • 3: Lesion area percentage; 30 to less than 40% • 4: Lesion area percentage; 40 to less than 50% • 5: Lesion area percentage; 50 to less than 60% • 6: Lesion area percentage; 60 to less than 70% • 7: Lesion area percentage; 70 to less than 80% • 8: Lesion area percentage; 80 to less than 90% • 9: Lesion area percentage; 90 to less than 100% • 10: Lesion area percentage; 100% Control efficacy (%)={1-(infection index on treated plot/infection index on untreated plot)}×100 Rank of Control Efficacy • A: Control efficacy 100-90% • B: Control efficacy 89-80% • C: Control efficacy 79-60% • D: Control efficacy 59-0%

[2] = test system: wheat (cultivar: Chihoku Komugi); assay: Test Example 3: phytotoxicity for wheat by treatment of seeds (safety test on plant); format: in vivo; conditions: wheat seed dressing, 0.15% active ingredient based on weight of dry seeds; 7 and 14 days after sowing
Description: Seeds of wheat (cultivar: Chihoku Komugi) and a wettable powder prepared according to Formulation Example were placed in a vinyl bag, followed by adding thereto a small volume of water, and they were mixed to conduct seed dressing. On the day after this treatment, the seeds sowed in a plastic pot of 10 cm diameter, and cultivated in a greenhouse. Seven days and fourteen days after sowing, phytotoxicity for germination of the seeds and growth at the early stage were evaluated.

[3] = test system: powdery mildew fungus (Blumeria graminis); assay: Test Example 2: controlling effect by seed dressing against wheat powdery mildew, long-lasting effect; format: in vivo; conditions: 0.15% active ingredient based on weight of dry seeds, inoculated 50 days after sowing, investigated 7 days after inoculation
Text: as §1
Seeds of wheat (cultivar: Chihoku Komugi) and a wettable powder prepared according to Formulation Example were placed in a vinyl bag, followed by adding thereto a small volume of water, and they were mixed to conduct seed dressing. On the day after this treatment, the seeds sowed in a plastic pot of 10 cm diameter, and cultivated in a greenhouse. Fifty days after sowing, the seedlings thus obtained were inoculated with powdery mildew fungus (Blumeria graminis) by sprinkling. Seven days after inoculation, the seedlings were investigated and infection index was estimated according to the criterion shown below, after which the control efficacy (%) was calculated. In this occasion, infection index on the untreated plot was 8.0. As comparative examples, the above-described compounds I, II, III and IV were evaluated.

Row | Structure (SMILES) | Rank of control efficacy [1] | phytotoxicity for germination of the seeds and growth at the early stage [2] | melting point | Rank of control efficacy [3]
1 | CCCCCCCCOC(=O)c1snnc1C1CC1 [1-8] | B or more | absolutely no phytotoxicity |  | 
2 | O=C(OCc1cccc(Cl)c1)c1snnc1C1CC1 [1-11] | B or more | absolutely no phytotoxicity |  | 
3 | O=C(OCc1ccc(Cl)cc1)c1snnc1C1CC1 [1-12] | B or more | absolutely no phytotoxicity |  | 
4 | COC(=O)c1ccc(COC(=O)c2snnc2C2CC2)cc1 [1-24] | B or more | absolutely no phytotoxicity |  | 
5 | O=C(OCc1cc(Cl)cc(Cl)c1)c1snnc1C1CC1 [1-30] | B or more | absolutely no phytotoxicity |  | 
6 | CC(OC(=O)c1snnc1C1CC1)c1ccc(Cl)cc1 (stereo not drawn) [1-44] | B or more | absolutely no phytotoxicity |  | 
7 | O=C(NCc1ccccc1)c1snnc1C1CC1 [1-53] | B or more | absolutely no phytotoxicity |  | 
8 | CC(C)(C)c1ccc(CNC(=O)c2snnc2C2CC2)cc1 [1-63] | B or more | absolutely no phytotoxicity |  | 
9 | Cc1ccc(NC(=O)c2snnc2C2CC2)cc1Cl [1-95, 3′-chloro-4-cyclopropyl-4′-methyl-1,2,3-thiadiazole-5-carboxanilide] | B or more | absolutely no phytotoxicity | 150 to 153 °C | 
10 | COc1ccc(NC(=O)c2snnc2C2CC2)c(OC)c1 [1-96] | B or more | absolutely no phytotoxicity |  | 
11 | O=C(O)c1ccccc1NC(=O)c1snnc1C1CC1 [1-98, 2-(4-cyclopropyl-1,2,3-thiadiazol-5-ylcarbonylamino)benzoic acid] | B or more | absolutely no phytotoxicity |  | 
12 | N#Cc1ccccc1NC(=O)c1snnc1C1CC1 [1-100, 2′-cyano-4-cyclopropyl-1,2,3-thiadiazole-5-carboxanilide] |  |  | 124 °C | 
13 | CC(C)Cc1csc(NC(=O)c2snnc2C2CC2)n1 [1-110] | B or more | absolutely no phytotoxicity |  | 
14 | O=C(NS(=O)(=O)c1ccccc1)c1snnc1C1CC1 [1-121] | B or more | absolutely no phytotoxicity |  | 
15 | COc1ccc(CNC(=O)c2snnc2C2CC2)cc1OC [1-166] | B or more | absolutely no phytotoxicity |  | 
16 | O=C(Nc1nc2ccc(Cl)cc2s1)c1snnc1C1CC1 [1-178] | B or more |  |  | B or more
17 | CN(C)c1ccncc1.O=C(Nc1nc2ccc(Cl)cc2s1)c1snnc1C1CC1 [1-179] | B or more |  |  | B or more
18 | Cc1nc(-c2cccnc2NC(=O)c2snnc2C2CC2)no1 [1-183] | B or more |  |  | B or more
19 | O=C(Nc1cccc2nnsc12)c1snnc1C1CC1 [1-184] | B or more |  |  | B or more
20 | CNC(=O)c1ccccc1NC(=O)c1snnc1C1CC1 [1-189] | B or more |  |  | B or more
21 | CSc1ccccc1NC(=O)c1snnc1C1CC1 [1-190] | B or more |  |  | B or more
22 | N#Cc1snnc1C1CC1 [3-1, 4-cyclopropyl-1,2,3-thiadiazole-5-carbonitrile] | B or more |  |  | B or more
23 | O=C(O)c1snnc1C1CC1 [Comparative compound IV, 4-cyclopropyl-1,2,3-thiadiazole-5-carboxylic acid] |  | delay germination and suppressed growth | 158 to 159 °C | B (Control efficacy 89-80%)
24 | COC(=O)c1snnc1C1CC1 [III, methyl 4-cyclopropyl-1,2,3-thiadiazole-5-carboxylate] |  |  | 47 °C | 
